Test results: PubChem BioAssay AID1996
Converted amounts (≈) assume the structure as drawn.

Details: buffer; pH 7.4; 200.0 µM

Row | SMILES | solubility kinetic [µg/mL]
1 | Cc1cccc(OCCCN2CCOCC2)c1 | 28 (≈ 119 µM)
2 | COc1ccc(OC)c(C2=NOC(C(=O)Nc3cc(C)on3)C2)c1 (stereo unspecified) | 44.1 (≈ 133 µM)
3 | O=C(O)c1nccnc1C(=O)Nc1ccccc1N1CCOCC1 | > 49.2
4 | O=C(O)Cc1c[nH]c2ccccc12 | > 26.3
5 | COc1ccc(/C=C2\N=C(SC)N(c3ccccc3OC)C2=O)cc1 | 1.4 (≈ 3.95 µM)
6 | N#Cc1ccc(S(=O)(=O)N2CCc3[nH]c4ccc(F)cc4c3C2)cc1 | < 0.3
7 | O=C1NNC(=O)C1c1ccccc1 | > 26.4
8 | Cc1ccc(S(=O)(=O)N2CCOCC2)cc1C(=O)N1CC(C)CC(C)C1 (stereo unspecified) | 35.9 (≈ 94.3 µM)
9 | O=C1NC2(CCCCC2)C(=O)N1c1cccc(Cl)c1 | 11.1 (≈ 39.8 µM)
10 | CCCCCCCCCCOC(=O)NC1CCS(=O)(=O)C1 (stereo unspecified) | 1.1 (≈ 3.44 µM)
11 | O=[N+]([O-])c1ccc(Oc2cccc(C(F)(F)F)c2)nc1 | 3.5 (≈ 12.3 µM)
12 | O=C(CN1C(=O)NC(c2ccc(F)cc2)C1=O)NC1CCCCC1 (stereo unspecified) | > 50
13 | O=C(c1cc(F)c(F)c(F)c1F)N1CCN(C(=O)C2CCCO2)CC1 (stereo unspecified) | > 54
14 | CCOC(=O)C1CCN(CC(=O)Nc2ccc(OC)c(S(=O)(=O)N3CCCCC3)c2)CC1 | > 70.1
15 | CS(=O)(=O)N1CCC(C(=O)NCc2ccc(Cl)cc2)CC1 | > 49.6
16 | CC(Oc1ccc(Cl)cc1Cl)/C(N)=N/O (stereo unspecified) | 30.2 (≈ 121 µM)
17 | O=C(NC1CCN(c2ncccn2)CC1)c1cccc(F)c1 | 32.8 (≈ 109 µM)
18 | O=S(=O)(NCCn1cccc1)c1ccc2ccccc2c1 | 2.1 (≈ 6.99 µM)
19 | CN1CCCC(OC(=O)c2ccccc2F)C1.Cl (stereo unspecified) | 39.7
20 | C=CCN1CCN(c2ccncc2S(=O)(=O)N2CCCCC2)CC1 | > 52.6

Next, values leading:

Row | solubility kinetic [µg/mL] | SMILES
21 | > 44.9 | O=C1CN(C(=O)CSc2ccccn2)c2ccccc2N1
22 | < 0.2 | O=c1[nH]c2cc3c(cc2cc1CN(Cc1cccnc1)C(=S)NCc1ccco1)OCCO3
23 | 55 | Cc1cc(Nc2ccc(N3CCOCC3)cc2)c2cccc(C)c2n1.Cl
24 | 0.5 (≈ 1.51 µM) | N/C(=N/OC(=O)c1cccc([N+](=O)[O-])c1)c1cccc([N+](=O)[O-])c1
25 | 34.1 (≈ 105 µM) | O=C(COc1ccccc1)Nc1ccc(C(=O)N2CCCC2)cc1
26 | 1.1 (≈ 3.67 µM) | N#Cc1nc(-c2ccco2)oc1NCc1ccccc1Cl
27 | 0.5 (≈ 1.6 µM) | Cc1ncc([N+](=O)[O-])n1CC(=O)Nc1ccc(F)c(Cl)c1
28 | 45.7 (≈ 132 µM) | Cc1cc(C(=O)COC(=O)C(C)NC(N)=O)c(C)n1Cc1ccco1 (stereo unspecified)
29 | 18.6 (≈ 36.4 µM) | CCOC(=O)c1ccccc1NC(=O)CSc1nc2ccccc2c(=O)n1CCCN1CCOCC1
30 | < 0.4 | Cc1ccc(NC(=O)c2ccccc2NC(=O)c2cccs2)cc1
31 | 17 (≈ 53.6 µM) | CC(=O)c1ccc(NC(=O)COC(=O)CCC2CCCC2)cc1
32 | 3.4 (≈ 9.57 µM) | O=C(NC1CCN(C(=O)NCc2ccccc2)CC1)c1cccc(F)c1
33 | 31.7 (≈ 114 µM) | CC(=O)Nc1ccc(C2NC(=O)CCC2[N+](=O)[O-])cc1 (stereo unspecified)
34 | > 51.2 | NS(=O)(=O)c1ccc(NC(=S)NC(=O)C2CCCCC2)cc1
35 | 9.6 (≈ 29.5 µM) | CCOC(=O)c1ccc(NC2=CC(=O)CC(c3ccco3)C2)cc1 (stereo unspecified)
36 | 5.1 (≈ 11.3 µM) | CCCN(CC(=O)Nc1cc(Cl)ccc1Cl)C(=O)/C=C/c1cc(OC)ccc1OC
37 | > 42 | Cn1c(CO)cnc1SCC(=O)c1ccc(F)cc1
38 | > 37.4 | O=C(CN1CCCC1)Nc1ccc([N+](=O)[O-])cc1
39 | > 51.9 | O=C(CCNC(=O)c1ccccc1Cl)OCC(=O)c1ccccc1
40 | 2.1 (≈ 5.95 µM) | O=C(NCCOc1ccccc1F)Nc1ccc(Br)cc1
41 | 38.3 (≈ 124 µM) | COc1ccc(-c2nc3ccccc3c(=O)n2CC(C)C)cc1
42 | 4.5 (≈ 10.5 µM) | COc1ccc(CNC(=O)CN2C(=O)NC(c3ccccc3)(c3ccccc3)C2=O)cc1
43 | 0.9 (≈ 3.54 µM) | O=[N+]([O-])c1ccc(N2CCc3ccccc3C2)cc1
44 | > 43.6 | CC(C)CNC(=O)[C@@H]1CSC2c3ccccc3C(=O)N21 (stereo partly specified)
45 | 32.8 (≈ 118 µM) | CC(C)Oc1ccc(C(=O)CCN2CCOCC2)cc1
46 | 2.1 (≈ 5.72 µM) | COc1cc2c(cc1OC)-c1cc(Nc3ccc(F)cc3)nc(=O)n1CC2
